One test concerns ACHN. The test can be described thus: Colony formation assay. The test is classed as cell-based, human. Conditions: 6–11 days, Figure 3D. Here is the method:
(§1) The indicated concentrations TH5487 were spotted in 6-well plates using a Tecan D300e digital dispenser. 200–500 cells/well H460, ACHN, Ogg1^−/− mouse embryonic fibroblasts and MRC5 cells were then seeded at 200–500 cells/well and incubated for 7–11 days. Colonies exceeding 50 cells were fixed, stained and enumerated as above.
(§2) Figure 3. The OGG1 inhibitor TH5487 is selectively toxic to oncogene-expressing cells and cancer cell lines. (A) Close-up view of ligand TH5487 (green) binding to human OGG1. Important residues in the binding site are marked, hydrogen bond interactions are shown in black dashed line, water (red sphere)-mediated interactions in grey dashed line. (B) Comparison between the binding of ligand TH5487 (green) to human OGG1 (gray) with the structure of TH5675 (pink) bound to mouse OGG1 (yellow, PDB 6G3Y). (C) Viability of BJ-Tert and BJ-Ras cells exposed to the indicated concentrations TH5487 for five days. Data are average ±SD of four technical replicates from two independent experiments. (D) Clonogenic survival of cell lines exposed to TH5487. The cancer cell lines ACHN and H460, and the non-transformed cell lines MRC5 and Ogg1^−/− mouse embryonic fibroblasts (MEF) were incubated for 6–11 days in the presence of the indicated concentrations TH5487, followed by colony enumeration. Data are average ±SD values of four technical replicates, representative of three independent experiments. (E) TH5487 selectively decreases viability of cancer cell lines. EC50-values of 34 cancer (red) and 7 non-transformed cell lines (blue). Cells were exposed to a dilution series of TH5487 for five days followed by a viability assessment using resazurin. All cell lines were tested in two to ten independent experiments. Each point represents the EC50-value from one experiment (average of two or three technical replicates). (F) Comparative analysis of EC50 values for TH5487 in cancer- and non-transformed cell lines, and CD34+ hematopoietic stem cells, CD34- fraction from cord blood or PBMCs from healthy donor blood. […]

A further test concerns H460. Kind of test: Colony formation assay. The test is classed as cell-based, human. The following applies: H460, 6–11 days, Figure 3D. As to the method: as §1, §2
In the next test the test system is MRC5. The test can be described thus: Colony formation assay. The test is classed as cell-based, human. The following applies: MRC5, up to 20 μM. Here is the method: as §1, §2
Test [1] has as its system Ogg1−/− mouse embryonic fibroblasts. Kind of test: Colony formation assay. The test is classed as cell-based. Conditions: up to 20 μM. Here is the method:
as §1
Figure 3. The OGG1 inhibitor TH5487 is selectively toxic to oncogene-expressing cells and cancer cell lines. (A) Close-up view of ligand TH5487 (green) binding to human OGG1. Important residues in the binding site are marked, hydrogen bond interactions are shown in black dashed line, water (red sphere)-mediated interactions in grey dashed line. (B) Comparison between the binding of ligand TH5487 (green) to human OGG1 (gray) with the structure of TH5675 (pink) bound to mouse OGG1 (yellow, PDB 6G3Y). (C) Viability of BJ-Tert and BJ-Ras cells exposed to the indicated concentrations TH5487 for five days. Data are average ±SD of four technical replicates from two independent experiments. (D) Clonogenic survival of cell lines exposed to TH5487. The cancer cell lines ACHN and H460, and the non-transformed cell lines MRC5 and Ogg1^−/− mouse embryonic fibroblasts (MEF) were incubated for 6–11 days in the presence of the indicated concentrations TH5487, followed by colony enumeration. […]

Test [2] deals with primary blood cells (CD34+ cells, CD34- fraction from cord blood, PBMCs). The test can be described thus: Resazurin viability of primary blood cells. The test is classed as cell-based, human. Here is the method: Cells were seeded in 96- or 384-well plates and incubated for 3 days for combination experiments or 5 days for single-drug exposure experiments. Resazurin (R7017, SigmaAldrich) was added to a final concentration of 0.01 mg/ml resazurin and fluorescence was measured at ex530/em590 after incubation for 2, 4 or 6 h. Curves were fitted using XLfit software (IDBS) or Prism 8.0 (Graphpad Software), and EC50 values were determined.
Peripheral blood mononuclear Cells (PBMC) were isolated from peripheral whole blood from controls using Histopaque®-1077 (Sigma-Aldrich, San Luis, MO, USA) following the manufacturer's instructions. Briefly, peripheral blood was collected in heparin and diluted with equal amount of PBS. Next, blood was centrifuged with Histopaque®-1077 at 400 × g for 30 min at room temperature and the PBMC layer was recovered. All steps were processed within 4 h after blood extraction.
Isolation of total CD34+ cells was performed from umbilical cord blood samples (CB) from healthy donors distributed from Centro de Transfusión de la Comunidad de Madrid. All samples were collected under written consent and institutional review board agreement. CD34+ cells was obtained from mononuclear cells were separated by fractionation in Ficoll-hypaque according to manufacturer's recommendations (GE Healthcare). […]

The next test concerns A3 cells. Kind of test: A3 cell numbers and viability. The test is classed as cell-based, human. As to the method: Figure 4. Anticancer properties overlap between OGG1 loss and OGG1 inhibitors. (A) Viability of T-cell acute […] leukemia cell lines treated for 5 days with the indicated doses TH5487. Data are average ±SD of independent experiments (A3, n = 5; Jurkat, n = 3; MOLT-4, n = 4; CCRF-CEM, n = 3). (B) Relative cell numbers and (C) viability (%) for A3 cells treated for 5 days with 10 μM TH5487. Data are average ±SD of six replicates from three independent experiments. (D) Induction of apoptosis in A3 cells treated for 72 h TH5487 and stained for Annexin V. Data are average ±SD of three independent experiments. (E) A3 cells transfected with shRNA targeting OGG1 were treated with doxycycline for 6 days and stained for Annexin V. Data are average ±SD of two independent experiments. (F) Scheme for recovery experiment in which A3 OGG1-shRNA cells or A3 cells were silenced or inhibited for 6 days with doxycycline (200 nM) or TH5487 (10 μM). […] Data are average ±SD of 2–6 technical replicates representative of two independent experiments (I). Scheme for off-target effect evaluation in which A3 OGG1-shRNA cells were exposed to doxycycline for six days and after that, cells were exposed to TH5487 (10 μM) for 48 h followed by measurements of cell numbers (J) and viability by trypan blue exclusion (K). Data are average ±SD of two technical replicates from four independent experiments. Statistical significance was determined using unpaired, two-sided t-tests (*P < 0.05, **P < 0.01, ***P < 0.001, ****P < 0.0001, ns, non-significant).

On to `O=C(Nc1ccc(I)cc1)N1CCC(n2c(=O)[nH]c3c(Br)cccc32)CC1` [TH5487], for which the Clonogenic potential result is “concentration-dependent loss of clonogenic potential” in the test with ACHN, “concentration-dependent loss of clonogenic potential” in the test with H460, “unaffected” with MRC5 and “unaffected” in test [1]. Besides, in test [2] (CD34+ cells, resting and activated CD34- cells from umbilical cord blood, healthy donors), the “Tolerance by hematopoietic primary cells” value was “well tolerated”. Further, the EC50 (in general, the midpoint of the concentration-response curve) in test [2] (primary blood cells from healthy donors, activated or not, read-out: EC50, average over primary blood cells) was found to be 35.1 ± 20 µM. In addition, in the test on A3 cells (A3 cells exposed for 6 days to 10 μM), the “Recovery of proliferation after release into fresh medium” value is “able to divide normally”. Further, the Cell viability result in the test with A3 cells (A3 cells, 10 μM, after 72 h) is given as “mild decrease in cell viability”. In addition, the “Proliferation (relative cell numbers)” value with A3 cells (A3 cells, 10 μM, up to 72 h) is listed as “slower proliferation”.

The values are drawn from publication PMC7708037, “Targeting OGG1 arrests cancer cell proliferation by inducing replication stress” (Nucleic Acids Research, 2020).
